# Key:
# human GSK3α = target: T1, human GSK3α (Homo sapiens, UniProt P49840); assay: In vitro enzymatic activity assay, GSK3α; format: biochemical; conditions: 1.0 mM ATP, 1.0 μM peptide substrate, 120 min, 25° C, read-out: Enzyme GSK3α (IC50)
# T1 construct: Full length human GSK3α or GSK3B expressed as N-terminal GST fusion proteins; GST (N); purchased Carna Biosciences (Japan); host or cells: baculovirus host
# GSK3A = target: T2, GSK3A (Homo sapiens, UniProt P49840); assay: NanoBRET cellular target engagement assay, Nanoluc-GSK3A in HEK293 cells; format: cell-based; conditions: NanoBRET GSK3α IC50, HEK293 cells, tracer K-8, 2 hours, 37° C
# T2 construct: expressed in transfected cells
# T2 sequence (P49840 whole entry): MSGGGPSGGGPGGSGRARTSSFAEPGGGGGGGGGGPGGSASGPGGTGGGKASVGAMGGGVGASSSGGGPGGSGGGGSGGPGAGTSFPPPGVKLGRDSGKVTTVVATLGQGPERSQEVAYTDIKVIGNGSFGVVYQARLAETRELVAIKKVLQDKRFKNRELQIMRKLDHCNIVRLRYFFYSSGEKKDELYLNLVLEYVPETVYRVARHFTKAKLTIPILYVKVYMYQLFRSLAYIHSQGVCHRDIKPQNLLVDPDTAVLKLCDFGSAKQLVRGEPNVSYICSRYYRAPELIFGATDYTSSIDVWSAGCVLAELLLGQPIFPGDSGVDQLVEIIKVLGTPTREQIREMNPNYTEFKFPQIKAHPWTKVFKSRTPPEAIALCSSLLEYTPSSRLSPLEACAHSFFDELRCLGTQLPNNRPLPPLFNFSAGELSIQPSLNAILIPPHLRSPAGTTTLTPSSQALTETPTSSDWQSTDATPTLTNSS
# GSK3B [1] = target: T3, GSK3B (Homo sapiens, UniProt P49841); assay: NanoBRET cellular target engagement assay, Nanoluc-GSK3B in HEK293 cells; format: cell-based; set-up: expressed in transfected cells; conditions: NanoBRET GSK3β IC50, HEK293 cells, tracer K-8, 2 hours, 37° C
# T3 sequence (P49841 whole entry, the tested form may be a part): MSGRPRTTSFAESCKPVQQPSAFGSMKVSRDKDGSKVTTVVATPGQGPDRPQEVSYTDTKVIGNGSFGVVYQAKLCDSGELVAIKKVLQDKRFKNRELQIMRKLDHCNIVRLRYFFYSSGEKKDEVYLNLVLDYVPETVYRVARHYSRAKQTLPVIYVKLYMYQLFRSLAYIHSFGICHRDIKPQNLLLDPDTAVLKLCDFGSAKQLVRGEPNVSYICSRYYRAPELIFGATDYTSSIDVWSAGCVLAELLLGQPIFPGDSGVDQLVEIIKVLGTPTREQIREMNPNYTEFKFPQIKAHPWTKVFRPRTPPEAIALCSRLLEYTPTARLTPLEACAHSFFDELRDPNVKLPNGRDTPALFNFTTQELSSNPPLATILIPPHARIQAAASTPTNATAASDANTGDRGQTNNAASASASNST
# GSK3B [2] = target: T3, GSK3B; assay: In vitro enzymatic activity assay, GSK3β; format: biochemical; set-up: Full length human GSK3α or GSK3B expressed as N-terminal GST fusion proteins; GST (N); purchased Carna Biosciences (Japan); host or cells: baculovirus host; conditions: 1.0 mM ATP, 1.0 μM peptide substrate, 120 min, 25° C, read-out: Enzyme GSK3β (IC50)
# T1 sequence (P49840 whole entry, the tested form may be a part): as the sequence (P49840 whole entry) above
Structure (SMILES),IC50 (human GSK3α) [µM],IC50 (GSK3A) [µM],IC50 (GSK3B [1]) [µM],IC50 (GSK3B [2]) [µM]
"Nc1ncn(-c2c(Cl)cc(C(F)F)cc2Cl)c(=O)c1C(=O)Nc1cncc([C@@H]2CCCN2)c1 [Example 55, (S)-4-amino-1-(2,6-dichloro-4-(difluoromethyl)phenyl)-6-oxo-N-(5-(pyrrolidin-2-yl)pyridin-3-yl)-1,6-dihydropyrimidine-5-carboxamide]",0.0091,0.0065,0.483,0.43
"CCNCc1cncc(NC(=O)c2c(N)ncn(-c3c(Cl)cc(COC)cc3Cl)c2=O)c1 [Example 60, 4-amino-1-(2,6-dichloro-4-(methoxymethyl)phenyl)-N-(5-((ethylamino)methyl)pyridin-3-yl)-6-oxo-1,6-dihydropyrimidine-5-carboxamide]",0.0065,0.003,0.2,0.334
"COCc1cc(Cl)c(-n2cnc(N)c(C(=O)Nc3cncc([C@@H]4CCCCN4)c3)c2=O)c(Cl)c1 [Example 61, (S)-4-amino-1-(2,6-dichloro-4-(methoxymethyl)phenyl)-6-oxo-N-(5-(piperidin-2-yl)pyridin-3-yl)-1,6-dihydropyrimidine-5-carboxamide]",0.0064,0.0037,0.284,0.466
"COCc1cc(Cl)c(-n2cnc(N)c(C(=O)Nc3cncc(CNC(C)C)c3)c2=O)c(Cl)c1 [Example 64, 4-amino-1-(2,6-dichloro-4-(methoxymethyl)phenyl)-N-(5-((isopropylamino)methyl)pyridin-3-yl)-6-oxo-1,6-dihydropyrimidine-5-carboxamide]",0.0117,0.0065,0.489,0.621
"COc1cc(Cl)c(-n2cnc(N)c(C(=O)Nc3cncc([C@@H]4CCCN4)c3)c2=O)c(Cl)c1 [Example 73, (S)-4-amino-1-(2,6-dichloro-4-methoxyphenyl)-6-oxo-N-(5-(pyrrolidin-2-yl)pyridin-3-yl)-1,6-dihydropyrimidine-5-carboxamide]",0.0067,0.0058,0.374,0.318
"CCCOc1cc(Cl)c(-n2cnc(N)c(C(=O)Nc3cncc(CNCC)c3)c2=O)c(Cl)c1 [Example 86, 4-amino-1-(2,6-dichloro-4-propoxyphenyl)-N-(5-((ethylamino)methyl)pyridin-3-yl)-6-oxo-1,6-dihydropyrimidine-5-carboxamide]",0.0066,0.0042,0.321,0.414
"CCC[C@@H](N)c1cncc(NC(=O)c2c(N)ncn(-c3c(C)cc(OCC)cc3C)c2=O)c1 [Example 94, (R)-4-amino-N-(5-(1-aminobutyl)pyridin-3-yl)-1-(4-ethoxy-2,6-dimethylphenyl)-6-oxo-1,6-dihydropyrimidine-5-carboxamide]",0.0076,0.0066,0.384,0.598
"CNCc1cncc(NC(=O)c2c(N)ncn(-c3c(C)cc(COC)cc3C)c2=O)c1 [Example 99, 4-amino-1-(4-(methoxymethyl)-2,6-dimethylphenyl)-N-(5-((methylamino)methyl)pyridin-3-yl)-6-oxo-1,6-dihydropyrimidine-5-carboxamide]",0.0205,0.0074,0.565,1.02

# These reach a lower IC50 (human GSK3α). Values come first.
IC50 (human GSK3α) [µM],IC50 (GSK3A) [µM],IC50 (GSK3B [1]) [µM],IC50 (GSK3B [2]) [µM],Structure (SMILES)
0.0052,0.0047,0.298,0.343,"Nc1ncn(-c2c(Cl)cc(Cl)cc2Cl)c(=O)c1C(=O)Nc1cncc([C@@H]2CCCCN2)c1 [Example 48, (S)-4-amino-6-oxo-N-(5-(piperidin-2-yl)pyridin-3-yl)-1-(2,4,6-trichlorophenyl)-1,6-dihydropyrimidine-5-carboxamide]"
0.0044,0.0025,0.132,0.209,"NCc1cncc(NC(=O)c2c(N)ncn(-c3c(Cl)cc(OC4CC4)cc3Cl)c2=O)c1 [Example 52, 4-amino-N-(5-(aminomethyl)pyridin-3-yl)-1-(2,6-dichloro-4-cyclopropoxyphenyl)-6-oxo-1,6-dihydropyrimidine-5-carboxamide]"
0.0054,0.0054,0.34,0.345,"Nc1ncn(-c2c(Cl)cc(C(F)F)cc2Cl)c(=O)c1C(=O)Nc1cccc([C@@H]2CCCN2)c1 [Example 54, (S)-4-amino-1-(2,6-dichloro-4-(difluoromethyl)phenyl)-6-oxo-N-(3-(pyrrolidin-2-yl)phenyl)-1,6-dihydropyrimidine-5-carboxamide]"
0.0057,0.0048,0.273,0.323,"Nc1ncn(-c2c(Cl)cc(C(F)F)cc2Cl)c(=O)c1C(=O)Nc1cncc([C@@H]2CCCCN2)c1 [Example 56, (S)-4-amino-1-(2,6-dichloro-4-(difluoromethyl)phenyl)-6-oxo-N-(5-(piperidin-2-yl)pyridin-3-yl)-1,6-dihydropyrimidine-5-carboxamide]"
0.0045,0.0044,0.234,0.209,"COCc1cc(Cl)c(-n2cnc(N)c(C(=O)Nc3cncc(CNCCO)c3)c2=O)c(Cl)c1 [Example 63, 4-amino-1-(2,6-dichloro-4-(methoxymethyl)phenyl)-N-(5-(((2-hydroxyethyl)amino)methyl)pyridin-3-yl)-6-oxo-1,6-dihydropyrimidine-5-carboxamide]"
0.0051,0.0031,0.217,0.302,"COCc1cc(Cl)c(-n2cnc(N)c(C(=O)Nc3cncc(C4(N)CCC4)c3)c2=O)c(Cl)c1 [Example 65, 4-amino-N-(5-(1-aminocyclobutyl)pyridin-3-yl)-1-(2,6-dichloro-4-(methoxymethyl)phenyl)-6-oxo-1,6-dihydropyrimidine-5-carboxamide]"
0.0022,0.0035,0.196,0.152,"COC[C@@H](N)c1cncc(NC(=O)c2c(N)ncn(-c3c(Cl)cc(OC)cc3Cl)c2=O)c1 [Example 77, (S)-4-amino-N-(5-(1-amino-2-methoxyethyl)pyridin-3-yl)-1-(2,6-dichloro-4-methoxyphenyl)-6-oxo-1,6-dihydropyrimidine-5-carboxamide]"
0.006,0.0037,0.201,0.299,"CCOc1cc(C)c(-n2cnc(N)c(C(=O)Nc3cncc([C@H]4CCCCN4)c3)c2=O)c(C)c1 [Example 91, (R)-4-amino-1-(4-ethoxy-2,6-dimethylphenyl)-6-oxo-N-(5-(piperidin-2-yl)pyridin-3-yl)-1,6-dihydropyrimidine-5-carboxamide]"
0.0036,0.0018,0.121,0.23,"Cc1cc(C(F)F)cc(C)c1-n1cnc(N)c(C(=O)Nc2cncc([C@H]3CCCCN3)c2)c1=O [Example 97, (R)-4-amino-1-(4-(difluoromethyl)-2,6-dimethylphenyl)-6-oxo-N-(5-(piperidin-2-yl)pyridin-3-yl)-1,6-dihydropyrimidine-5-carboxamide]"
0.0046,0.0025,0.134,0.254,"COCc1cc(C)c(-n2cnc(N)c(C(=O)Nc3cncc([C@H]4CCCCN4)c3)c2=O)c(C)c1 [Example 98, (R)-4-amino-1-(4-(methoxymethyl)-2,6-dimethylphenyl)-6-oxo-N-(5-(piperidin-2-yl)pyridin-3-yl)-1,6-dihydropyrimidine-5-carboxamide]"
